What was measured:
[1] = test system: glycoproteins; assay: hemagglutinating inhibition test with glycoproteins (sugar binding specificity); assay type: cell-based
Source text: The sugar binding specificity of lectin also can be confirmed by using erythrocytes that can be specifically agglutinated by the lectin to investigate the sugar type that may inhibit the agglutination of the erythrocytes and the concentration thereof.
Various monosaccharides, oligosaccharides, and polysaccharides shown in Table 2 and glycoproteins shown in Table 3 were subjected to hemagglutinating inhibition test to evaluate PTL of Example 1 and the SRL of Example 2 with regard to the sugar binding specificity.
On a 96 well U-bottom microtiter plate, double dilution series of 10 μl of monosaccharide, oligosaccharide, polysaccharide, and glycoprotein solutions were prepared. Then, lectin solution adjusted in advance to have titer 4 was added in an amount of 10 μl to the respective wells. Then, the plate was subjected to a still-standing at a room temperature for one hour for sensitization. Then, 10 μl of 4%-red blood cell suspension was added to the respective wells and the plate was further subjected to a still-standing at a room temperature for one hour. […] The lowest concentration showing the inhibition was assumed as the minimum inhibition concentration. The lower the minimum inhibition concentration is, the higher the specificity to lectin is.
For comparison, the sugar binding specificity was evaluated using the following commercially-available lectins: Comparison Example 1: AAL (SEIKAGAKU BIOBUSINESS CORPORATION—J-OIL MILLS, Inc.), Comparison Example 2: AOL (TOKYO CHEMICAL INDUSTRY CO., LTD.—Gekkeikan Sake Company, Ltd.), Comparison Example 3: LCA (SEIKAGAKU BIOBUSINESS CORPORATION—J-OIL MILLS, Inc.), and Comparison Example 4: PSA (SEIKAGAKU BIOBUSINESS CORPORATION—J-OIL MILLS, Inc.).

[2] = frontal affinity chromatography (FAC), association constant to PA sugar chains having α1→6 L-fucose; assay type: binding; settings: 25 degrees C.
Procedure: The following section will describe a method of calculating an association constant by frontal affinity chromatography (FAC). This method is based on the following principle. […] Then, the elution front end (front) is observed immediately. When there is an affinity with lectin, the elution of the sugar chain is delayed.
The preparation of a lectin column used in the apparatus is performed in the method as described below. 1. Purified lectin is dissolved in 0.1 to 0.2M of NaHCO3 buffer solution (pH 8.3 to 8.5). 2. The lectin is immobilized, via a lectin primary amino group, a carrier such as NHS activated sepharose. 3. Then, the lectin is blocked by Tris buffer solution including primary amine or ethanolamine for example. 4. Lectin-sepharose is suspended in 10 mM Tris buffer, including 0.8% of NaCl (pH 7.4, TBS). Then, lectin immobilized resin is filled in a miniature column (φ2 mm×10 mm, 31.4 μl). 5. The miniature column in which the lectin immobilized resin is filled is protected by a holder and the lectin column is connected to an FAC automatic analysis apparatus (FAC-1, SHIMADZU CORPORATION).
Then, the elution of the PA sugar chain from the column is detected by a fluorescence detector (excitation wavelength/fluorescence wavelength: 310 nm/380 nm).
Based on the detection data, by using the elution front end (Vo) of the sugar chain (PA rhamnose) not interacting with lectin as a reference, the delay (V−Vo) of the elution front end (V) of a sugar chain interacting with lectin is calculated as an interaction strength. Then, based on the following FAC criteria expressions, the association constant (Ka) between the sugar chain and lectin is calculated based on V−Vo and Bt. If the interaction strength (V−Vo value) and the association constant are higher, a higher affinity is caused between lectin and an L-fucose α1→6 sugar chain.
[In the formula, A means substance used for the elution, Ao means the initial concentration of the substance A, B means a immobilized ligand, V means the elution volume, Vo means the elution front end volume of the substance not interacting with the immobilized ligand B at all, Bt means an effective ligand amount, Kd means a dissociation constant (an inverse of the association constant)].
Pyridylaminated (PA) sugar chains shown in FIG. 1 and FIG. 2 were used to frontal affinity chromatography (FAC) analysis. PA sugars were purchased from TAKARA BIO INC., SEIKAGAKU BIOBUSINESS CORPORATION, and Masuda Chemical Industries co., LTD. PA sugar were also obtained by pyridylaminating, by GlycoTAG®(TAKARA BIO INC.), an unlabeled sugar chain or a sugar chain obtained by subjecting a sugar chain to enzyme digestion for example.
Lectin was dissolved in 0.2 M NaHCO3 buffer solution (pH 8.3) including 0.5 M NaCl and coupled to the NHS-activated sepharose (GE Healthcare Bioscience) by following the manufacturer's instructions. Then, lectin immobilized sepharose was suspended in 10 mM Tris buffer (pH 7.4, TBS) including […] and the resultant matter was filled in a miniature column (φ2 mm×10 mm, 31.4 μl).
Frontal affinity chromatography was performed using FAC automatic analysis apparatus (FAC-1, SHIMADZU CORPORATION). In particular, the above-prepared lectin column was inserted to a stainless steel holder and the holder was connected to FAC-1 apparatus. The flow rate and the column temperature were maintained at 0.125 ml/min and 25 degrees C., respectively. After the miniature column was equilibrated by the TBS, an excessive volume (0.5 ml to 4 ml) of a PA sugar chain (3.75 nM or 7.5 nM) was continuously inputted to the column using an automatic sampling apparatus.
The fluorescent strength of the eluate of the PA sugar (excitation wavelength of 310 nm and fluorescence wavelength of 380 nm) was monitored to measure the interaction strength [a difference of the front end eluate to the standard oligosaccharide (PA rhamnose): V−V0]. […]

[3] = inhibitor: Bovine blood serum albumin
[4] = inhibitor: Human immune globulin A
[5] = inhibitor: Human immune globulin G
[6] = inhibitor: α1-acidic glycoprotein

Substance | minimum inhibition concentration of hemagglutination ([1]; inhibitor: Asialofetuin) | minimum inhibition concentration of hemagglutination ([1]; inhibitor: Asialomucin (pig)) | minimum inhibition concentration of hemagglutination [1, 3] | minimum inhibition concentration of hemagglutination ([1]; inhibitor: Casein) | minimum inhibition concentration of hemagglutination ([1]; inhibitor: Fetuin) | minimum inhibition concentration of hemagglutination [1, 4] | minimum inhibition concentration of hemagglutination [1, 5] | association constant Ka ([2]; Sugar chain No. 015) | association constant Ka ([2]; Sugar chain No. 201) | association constant Ka ([2]; Sugar chain No. 202) | association constant Ka ([2]; Sugar chain No. 203) | association constant Ka ([2]; Sugar chain No. 401) | association constant Ka ([2]; Sugar chain No. 402) | association constant Ka ([2]; Sugar chain No. 403) | association constant Ka ([2]; Sugar chain No. 404) | association constant Ka ([2]; Sugar chain No. 405) | association constant Ka ([2]; Sugar chain No. 406) | association constant Ka ([2]; Sugar chain No. 410) | association constant Ka ([2]; Sugar chain No. 418) | association constant Ka ([2]; Sugar chain No. 602) | other results
Aspergillus oryzae lectin [AOL, reference compound] | >250 μl/ml | 62.5 μl/ml | >250 μl/ml | >250 μl/ml | >250 μl/ml | >250 μl/ml | >250 μl/ml | 130000 M⁻¹ | 120000 M⁻¹ | 120000 M⁻¹ | 130000 M⁻¹ | 140000 M⁻¹ | 160000 M⁻¹ | 130000 M⁻¹ | 150000 M⁻¹ | 130000 M⁻¹ | 110000 M⁻¹ | 100000 M⁻¹ | 63000 M⁻¹ | 140000 M⁻¹ | minimum inhibition concentration of hemagglutination ([1]; inhibitor: Lactoferrin): >250 μl/ml; minimum inhibition concentration of hemagglutination ([1]; inhibitor: Mucin (bovine)): >250 μl/ml; minimum inhibition concentration of hemagglutination ([1]; inhibitor: Mucin (pig)): 62.5 μl/ml; minimum inhibition concentration of hemagglutination ([1]; inhibitor: Ribonuclease): >250 μl/ml; minimum inhibition concentration of hemagglutination ([1]; inhibitor: Thyroglobulin): >250 μl/ml; minimum inhibition concentration of hemagglutination ([1]; inhibitor: Transferrin): >250 μl/ml; minimum inhibition concentration of hemagglutination [1, 6]: >250 μl/ml; association constant Ka ([2]; Sugar chain No. 407): 110000 M⁻¹; association constant Ka ([2]; Sugar chain No. 413): 79000 M⁻¹; association constant Ka ([2]; Sugar chain No. 601): 140000 M⁻¹
Naematoloma sublateritium lectin [NSL] |  |  |  |  |  |  |  | 36000 M⁻¹ | 38000 M⁻¹ | 39000 M⁻¹ | 30000 M⁻¹ | 51000 M⁻¹ | 36000 M⁻¹ | 52000 M⁻¹ | 43000 M⁻¹ | 50000 M⁻¹ | 23000 M⁻¹ | 31000 M⁻¹ | 35000 M⁻¹ | 19000 M⁻¹ | 
Stropharia rugosoannulata lectin [SRL, novel L-fucose α1→6 specific lectin purified from the mushroom Stropharia rugosoannulata] | >250 μl/ml | >250 μl/ml | >250 μl/ml | >250 μl/ml | >250 μl/ml | >250 μl/ml | >250 μl/ml | 49000 M⁻¹ | 64000 M⁻¹ | 61000 M⁻¹ | 52000 M⁻¹ | 57000 M⁻¹ | 44000 M⁻¹ | 56000 M⁻¹ | 58000 M⁻¹ | 54000 M⁻¹ | 38000 M⁻¹ | 39000 M⁻¹ | 4300 M⁻¹ | 32000 M⁻¹ | minimum inhibition concentration of hemagglutination ([1]; inhibitor: Lactoferrin): >250 μl/ml; minimum inhibition concentration of hemagglutination ([1]; inhibitor: Mucin (bovine)): >250 μl/ml; minimum inhibition concentration of hemagglutination ([1]; inhibitor: Mucin (pig)): >250 μl/ml; minimum inhibition concentration of hemagglutination ([1]; inhibitor: Ribonuclease): >250 μl/ml; minimum inhibition concentration of hemagglutination ([1]; inhibitor: Thyroglobulin): 250 μl/ml; minimum inhibition concentration of hemagglutination ([1]; inhibitor: Transferrin): >250 μl/ml; minimum inhibition concentration of hemagglutination [1, 6]: >250 μl/ml; association constant Ka ([2]; Sugar chain No. 407): 10000 M⁻¹; association constant Ka ([2]; Sugar chain No. 413): 10000 M⁻¹; association constant Ka ([2]; Sugar chain No. 601): 10000 M⁻¹
Lepista sordida lectin [LSL, novel lectin purified from the mushroom Lepista sordida] |  |  |  |  |  |  |  | 190000 M⁻¹ | 230000 M⁻¹ | 230000 M⁻¹ | 200000 M⁻¹ | 220000 M⁻¹ | 150000 M⁻¹ | 220000 M⁻¹ | 260000 M⁻¹ | 220000 M⁻¹ | 160000 M⁻¹ | 160000 M⁻¹ | 160000 M⁻¹ | 130000 M⁻¹ | 
